The values that follow are results of earlier work, collected in patent US20190110514A1, “KITS COMPRISING SATIETY-INDUCING FORMULATIONS” (PERORA GMBH, priority 2016, published 2019).

One data set has as its system satiety signalling. The following applies: infusion into the duodenum by feeding tube.
The conditions of data set [1]: rat feeding study; independent from intake.

Regarding `CCCCCCCCCCCC(=O)O` [lauric acid], in the data set on satiety signalling, the satiety signalling entry was “strong satiety signalling”.

For the molecule `CCCCCCCC/C=C\CCCCCCCC(=O)O` [oleic acid], the satiety signalling entry with satiety signalling was “strong satiety signalling”.

Regarding `CCCCCCCCCCCCCCCCCC(=O)OCC(COC(=O)CCCCCCCCCCCCCCCCC)OC(=O)CCCCCCCCCCCCCCCCC` [tristearin], the “true digestibility of stearic acid from tristearin” value in data set [1] was 0.15 g/g.
